Drawing on patent US8642788B2, “Activators of executioner procaspases 3, 6 and 7” (The Regents of the University of California, priority 2008, dated 2014), this text covers EC50 for 21 molecules.

Common to all, as to assay type: biochemical
The target in assay [1] is T1, procaspase-3 (Homo sapiens, UniProt P42574).
T1 construct: His6 (C); made in house; host or cells: E. coli BL21(DE3)RP, pET-23b
T1 sequence (P42574 1-277): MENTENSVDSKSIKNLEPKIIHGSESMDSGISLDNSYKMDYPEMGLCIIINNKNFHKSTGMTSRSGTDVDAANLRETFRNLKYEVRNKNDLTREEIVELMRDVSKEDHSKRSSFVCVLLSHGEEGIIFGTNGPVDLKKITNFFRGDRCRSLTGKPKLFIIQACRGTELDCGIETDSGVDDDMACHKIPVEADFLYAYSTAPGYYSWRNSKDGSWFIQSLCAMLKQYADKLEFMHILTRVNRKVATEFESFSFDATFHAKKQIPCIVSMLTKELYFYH
Kind of assay: Executioner procaspase-3 activation assay (Ac-DEVD-AFC fluorogenic substrate). Summed up: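 Procaspase-3 at 100 nM was incubated with activating compounds (100 nM to 100 uM) in 50 mM HEPES pH 7.4, 50 mM KCl, 1 mM DTT and 0.01% Triton-X100, the detergent limiting aggregation artefacts. Protein, substrate and inhibitor were kept as frozen aliquots and thawed just before use.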

Assay [2] addresses T2, procaspase-7 (Homo sapiens, UniProt P55210).
T2 construct: His6 (C); made in house; host or cells: E. coli BL21(DE3)RP, pET-21b
T2 sequence (P55210 1-303): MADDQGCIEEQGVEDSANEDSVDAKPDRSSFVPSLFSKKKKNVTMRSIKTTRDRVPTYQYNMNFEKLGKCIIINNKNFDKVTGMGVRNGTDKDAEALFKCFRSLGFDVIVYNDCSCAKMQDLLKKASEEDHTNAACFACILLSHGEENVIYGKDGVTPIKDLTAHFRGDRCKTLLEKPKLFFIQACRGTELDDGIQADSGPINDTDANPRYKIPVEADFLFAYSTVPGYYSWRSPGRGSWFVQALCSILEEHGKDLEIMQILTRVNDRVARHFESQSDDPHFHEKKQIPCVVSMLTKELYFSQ
In words: Executioner procaspase-7 activation assay (Ac-DEVD-AFC fluorogenic substrate). To be noted: incubation with compound for 5 h at 37° C.; 100 nM procaspase. Summed up:
(§1)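 Procaspase at 100 nM incubated with compound (100 nM–100 μM) in 50 mM HEPES pH 7.4, KCl, DTT, 0.01% Triton X-100, 3% DMSO, 37 °C for 5 h; then 25 μM Ac-DEVD-AFC (procaspase-7) or Ac-VEID-AFC (procaspase-6), kinetic fluorescence 30 min (ex 365/em 495); EC50 reported.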

Assay [3] concerns the target T3, procaspase-6 (Homo sapiens, UniProt P55212).
T3 sequence (P55212 1-293): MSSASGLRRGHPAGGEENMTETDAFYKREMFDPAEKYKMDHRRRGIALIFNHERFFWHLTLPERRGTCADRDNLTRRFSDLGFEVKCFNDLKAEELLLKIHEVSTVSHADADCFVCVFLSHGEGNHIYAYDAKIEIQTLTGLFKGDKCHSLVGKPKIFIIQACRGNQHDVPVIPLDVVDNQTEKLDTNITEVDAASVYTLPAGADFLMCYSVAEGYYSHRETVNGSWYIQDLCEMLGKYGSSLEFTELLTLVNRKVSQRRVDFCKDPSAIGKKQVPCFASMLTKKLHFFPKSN
In words: Executioner procaspase-6 activation assay (Ac-VEID-AFC fluorogenic substrate). Particulars: incubation with compound for 5 h at 37° C.; 100 nM procaspase. Summed up:
as §1

[4] abbreviates: incubation with compound for 5 h at 37° C., 100 nM procaspase, read-out: Procaspase Activation 3.

The structures appear in SMILES notation. Read-outs that look alike come from different tables or passages of the source.

Take `COc1cccc2cc(C(=O)Nc3cccc(-c4ccc(F)c(C#N)c4)c3)c(=O)oc12` [compound 146, 8-Methoxy-2-oxo-2H-chromene-3-carboxylic acid (3′-cyano-4′-fluoro-biphenyl-3-yl)-amide]: the EC50 in assay [1] (setting [4]), in assay [2] and in assay [3] was > 100 µM throughout.

Turning to `N#Cc1cccc(-c2cccc(NC(=O)c3cc4cccc(O)c4oc3=O)c2)c1` [compound 147, 8-Hydroxy-2-oxo-2H-chromene-3-carboxylic acid (3′-cyano-biphenyl-3-yl)-amide], the EC50 in assay [1] (setting [4]), in assay [2] and in assay [3] was > 100 µM throughout.

Turning to `COc1cccc2cc(C(=O)Nc3cccc(-c4cccc(C#N)c4)c3)c(=O)oc12` [compound 148, 8-Methoxy-2-oxo-2′-chromene-3-carboxylic acid (3′-cyano-biphenyl-3-yl)-amide], the EC50 in assay [1] (setting [4]), in assay [2] and in assay [3] was > 100 µM in each case.

Take `O=C(Nc1cccc(-c2cn[nH]c2)c1)c1cc2cccc(O)c2oc1=O` [compound 149, 8-Hydroxy-2-oxo-2H-chromene-3-carboxylic acid [3-(1H-pyrazol-4-yl)-phenyl]-amide]: the EC50 in assay [1] (setting [4]), in assay [2] and in assay [3] was > 100 µM each time.

On to `COc1cccc2cc(C(=O)Nc3cccc(-c4cn[nH]c4)c3)c(=O)oc12` [compound 150, 8-Methoxy-2-oxo-2H-chromene-3-carboxylic acid [3-(1H-pyrazol-4-yl)-phenyl]-amide], for which the EC50 in assay [1] (setting [4]), in assay [2] and in assay [3] was > 100 µM in each case.

Regarding `Cn1nccc1-c1cccc(NC(=O)c2cc3cccc(O)c3oc2=O)c1` [compound 151, 8-Hydroxy-2-oxo-2H-chromene-3-carboxylic acid [3-(2-methyl-2H-pyrazol-3-yl)-phenyl]-amide], the EC50 in assay [1] (setting [4]) was 10 to 50 µM; in assay [2], 10 to 50 µM; in assay [3] it was > 100 µM.

Turning to `COc1cccc2cc(C(=O)Nc3cccc(-c4ccnn4C)c3)c(=O)oc12` [compound 152, 8-Methoxy-2-oxo-2H-chromene-3-carboxylic acid [3-(2-methyl-2H-pyrazol-3-yl)-phenyl]-amide], the EC50 in assay [1] (setting [4]), in assay [2] and in assay [3] was > 100 µM each time.

`Cc1noc(C)c1-c1cccc(NC(=O)c2cc3cccc(O)c3oc2=O)c1` [compound 153, 8-Hydroxy-2-oxo-2H-chromene-3-carboxylic acid [3-(3,5-dimethyl-isoxazol-4-yl)-phenyl]-amide]: the EC50 in assay [1] (setting [4]) was 10 to 50 µM; in assay [2] it was 10 to 50 µM; in assay [3], > 100 µM.

For the molecule `COc1cccc2cc(C(=O)Nc3cccc(-c4c(C)noc4C)c3)c(=O)oc12` [compound 154, 8-Methoxy-2-oxo-2H-chromene-3-carboxylic acid [3-(3,5-dimethyl-isoxazol-4-yl)-phenyl]-amide], the EC50 in assay [1] (setting [4]), in assay [2] and in assay [3] was > 100 µM throughout.

As to `O=C(Nc1cccc(-c2ccn[nH]2)c1)c1cc2cccc(O)c2oc1=O` [compound 155, 8-Hydroxy-2-oxo-2H-chromene-3-carboxylic acid [3-(2H-pyrazol-3-yl)-phenyl]-amide], the EC50 in assay [1] (setting [4]), in assay [2] and in assay [3] was > 100 µM in each case.

As to `COc1cccc2cc(C(=O)Nc3cccc(-c4ccn[nH]4)c3)c(=O)oc12` [compound 156, 8-Methoxy-2-oxo-2H-chromene-3-carboxylic acid [3-(2H-pyrazol-3-yl)-phenyl]-amide], the EC50 in assay [1] (setting [4]), in assay [2] and in assay [3] was > 100 µM each time.

For the molecule `O=C(Nc1cccc(-c2ccc3[nH]c(=O)[nH]c3c2)c1)c1cc2cccc(O)c2oc1=O` [compound 157, 8-Hydroxy-2-oxo-2H-chromene-3-carboxylic acid [3-(2-oxo-2,3-dihydro-1H-benzoimidazol-5-yl)-phenyl]-amide], the EC50 in assay [1] (setting [4]), in assay [2] and in assay [3] was > 100 µM in each case.

For the molecule `COc1cccc2cc(C(=O)Nc3cccc(-c4ccc5[nH]c(=O)[nH]c5c4)c3)c(=O)oc12` [compound 158, 8-Methoxy-2-oxo-2H-chromene-3-carboxylic acid [3-(2-oxo-2,3-dihydro-1H-benzoimidazol-5-yl)-phenyl]-amide], the EC50 in assay [1] (setting [4]), in assay [2] and in assay [3] was > 100 µM each time.

On to `O=C(Nc1cccc(-c2ccc3nonc3c2)c1)c1cc2cccc(O)c2oc1=O` [compound 159, 8-Hydroxy-2-oxo-2H-chromene-3-carboxylic acid (3-benzo[1,2,5]oxadiazol-5-yl-phenyl)-amide], for which the EC50 in assay [1] (setting [4]), in assay [2] and in assay [3] was > 100 µM each time.

`COc1cccc2cc(C(=O)Nc3cccc(-c4ccc5nonc5c4)c3)c(=O)oc12` [compound 160, 8-Methoxy-2-oxo-2H-chromene-3-carboxylic acid (3-benzo[1,2,5]oxadiazol-5-yl-phenyl)-amide]: the EC50 in assay [1] (setting [4]), in assay [2] and in assay [3] was > 100 µM in each case.

Turning to `O=C(Nc1cccc(-c2ccc3occc(=O)c3c2)c1)c1cc2cccc(O)c2oc1=O` [compound 161, 8-Hydroxy-2-oxo-2H-chromene-3-carboxylic acid [3-(4-oxo-4H-chromen-6-yl)-phenyl]-amide], the EC50 in assay [1] (setting [4]) is 0.5 to 10 µM; in assay [2] it was > 100 µM; in assay [3], > 100 µM.

With `COc1cccc2cc(C(=O)Nc3cccc(-c4ccc5occc(=O)c5c4)c3)c(=O)oc12` [compound 162, 8-Methoxy-2-oxo-2H-chromene-3-carboxylic acid [3-(4-oxo-4H-chromen-6-yl)-phenyl]-amide], the EC50 is > 100 µM in assay [1] (setting [4]), > 100 µM in assay [2] and 0.5 to 10 µM in assay [3].

Turning to `Cn1ccc2cc(-c3cccc(NC(=O)c4cc5cccc(O)c5oc4=O)c3)ccc21` [compound 163, 8-Hydroxy-2-oxo-2H-chromene-3-carboxylic acid [3-(1-methyl-1H-indol-5-yl)-phenyl]-amide], the EC50 in assay [1] (setting [4]), in assay [2] and in assay [3] was > 100 µM throughout.

With `COc1cccc2cc(C(=O)Nc3cccc(-c4ccc5c(ccn5C)c4)c3)c(=O)oc12` [compound 164, 8-Methoxy-2-oxo-2H-chromene-3-carboxylic acid [3-(1-methyl-1H-indol-5-yl)-phenyl]-amide], the EC50 in assay [1] (setting [4]), in assay [2] and in assay [3] was > 100 µM throughout.

On to `O=C(Nc1cccc(-c2ccc3cc[nH]c3c2)c1)c1cc2cccc(O)c2oc1=O` [compound 165, 8-Hydroxy-2-oxo-2H-chromene-3-carboxylic acid [3-(1H-indol-6-yl)-phenyl]-amide], for which the EC50 in assay [1], in assay [2] and in assay [3] was > 100 µM in each case.

Consider `COc1cccc2cc(C(=O)Nc3cccc(-c4ccc5cc[nH]c5c4)c3)c(=O)oc12` [compound 166, 8-Methoxy-2-oxo-2H-chromene-3-carboxylic acid [3-(1H-indol-6-yl)-phenyl]-amide], for which the EC50 in assay [1], in assay [2] and in assay [3] was > 100 µM throughout.
